The results in this text go back to ChEMBL document CHEMBL3243971, “Synthesis and beta-adrenoceptor activity of the erythro and threo isomers of substituted alpha-hydroxytrimetoquinol” (J Med Chem, 1978).

Assay [1] is filed under the species Cavia porcellus. In words: Intrinsic activity at beta-adrenoceptor in guinea pig trachea assessed as tracheal relaxation at 10^-10 to 10^-4 M relative to control. Type of assay: tissue-based.
Assay [2] is filed under the species Cavia porcellus. In words: Agonist activity at beta-adrenoceptor in guinea pig trachea assessed as tracheal relaxation. Type of assay: tissue-based.
Assay [3] is filed under the species Cavia porcellus. In words: Intrinsic activity at beta-adrenoceptor in guinea pig atrium assessed as positive chronotropic effect at 10^-10 to 10^-4 M relative to control. Type of assay: tissue-based. The note with it: Cardiac atrium.
Assay [4] is filed under the species Cavia porcellus. In words: Agonist activity at beta-adrenoceptor in guinea pig atrium assessed as positive chronotropic effect. Type of assay: tissue-based. The note with it: Cardiac atrium.
Assay [5] deals with T1, Adrenergic receptor beta (Rattus norvegicus) (UniProt P18090+P10608+P26255). The note with it: Sprague-Dawley.
Description: Agonist activity at beta-adrenoceptor in Sprague-Dawley rat fat cells assessed as cAMP accumulation after 10 mins
Assay [6] addresses T1, Adrenergic receptor beta (Rattus norvegicus). Conditions: Sprague-Dawley, Plasma.
Description: Agonist activity at beta-adrenoceptor in Sprague-Dawley rat adipocytes assessed as adenylate cyclase activity in plasmalemma measured as radiolabelled cAMP level after 10 mins by scintillation counting
For assay [7] the target is unchanged. Conditions: Sprague-Dawley. This is another data set of the same source.
Description: Agonist activity at beta-adrenoceptor in Sprague-Dawley rat adipocytes assessed as lipolysis measured as glycerol release

In the case of `COc1cc(C[C@@H]2NCCc3cc(O)c(O)cc32)cc(OC)c1OC` (racemic), the Intrinsic activity amounted to 0.88 in the assay filed under Cavia porcellus [1] and 0.9 in the assay filed under Cavia porcellus [3]. The pD2 was 9 in the assay listed under Cavia porcellus [2]; 9.1 in the assay listed under Cavia porcellus [4]; 7.7 in assay [5]; 8.5 in assay [6]; 7.3 in assay [7].
As for `COc1cc([C@H](O)[C@@H]2NCCc3cc(O)c(O)cc32)cc(OC)c1OC` (racemic), the results for the Intrinsic activity in the assay filed under Cavia porcellus [1] and in the assay listed under Cavia porcellus [3] were 0.88 and 0.8, respectively. Besides, the pD2 in the assay listed under Cavia porcellus [2] was determined as 6.8; in the assay listed under Cavia porcellus [4] it was 6.5; in assay [5], 6.7; in assay [6] it was 6.8; in assay [7], 7.
As to `COc1cc([C@@H](O)[C@@H]2NCCc3cc(O)c(O)cc32)cc(OC)c1OC` (racemic), the Intrinsic activity is 0.76 in the assay listed under Cavia porcellus [1] and 0.78 in the assay filed under Cavia porcellus [3]. The pD2 in the assay listed under Cavia porcellus [2] turned out to be 6; in the assay filed under Cavia porcellus [4], 6.1; in assay [5], 6.4; in assay [6] it was 6.2; in assay [7], 6.8.
